The source of these data is patent US10793542B2, “Hetroarylamine compounds for modulating the hedgehog pathway and preparing method and uses thereof” (DEVELOPMENT CENTER FOR BIOTECHNOLOGY, priority 2016, dated 2020).

Some results are limits rather than exact numbers.

Holding throughout (type): cell-based
Assay [1] deals with hedgehog pathway (pGL3-7xGli-Luciferase reporter in C3H10T1/2 cells). The assay can be described thus: Transient transfection of C3H10T1/2 and Gli-Luc reporter assay with SAG stimulation. To be noted: Mus musculus, C3H 10T1/2, SAG 20 nM, 48 hr, read-out: Inhibition of Gli-Luc expression [IC50. Here is the method: A cell-based screen for inhibitors of the hedgehog pathway was performed using a transient transfection system in C3H10T1/2 cells with pGL3-7xGli-Luciferase reporter plasmids C3H10T1/2 cells (ATCC, cat.#CCL-226) were seeded into 6-well plates at 8×10^4 cells/well in a BME medium containing 10% heat-inactivated FBS. Cells were transfected the next morning with 500 ng/well pGL3-7xGli-Luciferase reporter plasmids and 100 ng/well pRL-TK Renilla luciferase reporter plasmids (Promega)using GeneJuice transfection reagent (Novagene). After 24 h, transfected cells were collected by trypsin treatment and re-plated in 96-well plates in an RPMI medium containing 0.5% FBS with a density of 1.5×10^4 cells/well. Compounds were dissolved in DMSO with serial dilutions and were then added to the assay plate. SAG (Hh-Ag 1.3) (Santa Cruz) was added to the assay plated for a final concentration 20 nM. The assay plates were incubated at 37° C. for 48 hr.
(§1) Firefly luciferase and Renilla luciferase activity was determined using the Dual-Glo Luciferase reporter assay system (Promega) with a Victor3 plate reader (PerkinElmer Life Sciences). Firefly luciferase readings were normalized to Renilla luciferase to correct for transfection efficiency. Luminance reading for the C3H10T1/2-Gli-Luc assay was normalized based on DMSO control with SAG stimulation (100% pathway activity) and without SAG stimulation (0% pathway activity). IC50 values, defined as the inflection point of the logistic curve, were determined by nonlinear regression using the Prism 5 software (GraphPad).
(A reporter such as luciferase makes a cellular process visible.)

The next assay concerns the target T1, Smo wild type (Homo sapiens, UniProt Q99835).
T1 construct: expressed in transfected cells; host or cells: C3H10T1/2 cells (ATCC CCL-226), transient transfection with pLPCX-SMO
The assay can be described thus: Reporter assay of C3H10T1/2-Gli-Luc cells transfected with wild-type Smo, without SAG. As to conditions: C3H10T1/2 cells transfected with pLPCX-SMO, no SAG, 48 hr; read-out: Inhibition of C3H10T1/2-Gli-Luc-Smo-WT [IC50. As for the experimental part:
(§2) A transient transfection system with a Smo wild type or a Smo D473H mutant was also used for compound screening. For the SMO inhibition experiments, cells were transfected with an additional 500 ng/well of wild-type or D473H-mutant type SMO construct (pLPCX-SMO or pLPCX-SMO-D473H). After 24 h, transfected cells were collected by trypsin treatment and re-plated in 96-well plates in an RPMI medium containing 0.5% FBS with a density of 1.5×10^4 cells/well. Compounds were dissolved in DMSO with serial dilutions and were then added to the assay plate. The assay plates were incubated at 37° C. for 48 hr.
as §1
(§3) The reporter assay of C3H10T1/2-Gli-Luc cells transfected with a wild-type, D473H mutant Smo mutant was carried out with the same protocol but without SAG stimulation. Luminance reading for the SMO inhibition experiments assay was normalized based on DMSO control (100% of the pathway activity) and a known Smo antagonist (ALLO-2 at 10 μM, 0% of the pathway activity).

The target of a further assay is T2, Smo D473H mutant (Homo sapiens, UniProt Q99835, D473H).
T2 construct: expressed in transfected cells; host or cells: C3H10T1/2 cells (ATCC CCL-226), transient transfection with pLPCX-SMO-D473H
Briefly: Reporter assay of C3H10T1/2-Gli-Luc cells transfected with Smo D473H mutant, without SAG. As to conditions: C3H10T1/2 cells transfected with pLPCX-SMO-D473H, no SAG, 48 hr; read-out: Inhibition of C3H10T1/2-Gli-Luc-Smo-D473H [IC50. As for the experimental part: as §2, §1, §3

T1 sequence (Q99835 28-787): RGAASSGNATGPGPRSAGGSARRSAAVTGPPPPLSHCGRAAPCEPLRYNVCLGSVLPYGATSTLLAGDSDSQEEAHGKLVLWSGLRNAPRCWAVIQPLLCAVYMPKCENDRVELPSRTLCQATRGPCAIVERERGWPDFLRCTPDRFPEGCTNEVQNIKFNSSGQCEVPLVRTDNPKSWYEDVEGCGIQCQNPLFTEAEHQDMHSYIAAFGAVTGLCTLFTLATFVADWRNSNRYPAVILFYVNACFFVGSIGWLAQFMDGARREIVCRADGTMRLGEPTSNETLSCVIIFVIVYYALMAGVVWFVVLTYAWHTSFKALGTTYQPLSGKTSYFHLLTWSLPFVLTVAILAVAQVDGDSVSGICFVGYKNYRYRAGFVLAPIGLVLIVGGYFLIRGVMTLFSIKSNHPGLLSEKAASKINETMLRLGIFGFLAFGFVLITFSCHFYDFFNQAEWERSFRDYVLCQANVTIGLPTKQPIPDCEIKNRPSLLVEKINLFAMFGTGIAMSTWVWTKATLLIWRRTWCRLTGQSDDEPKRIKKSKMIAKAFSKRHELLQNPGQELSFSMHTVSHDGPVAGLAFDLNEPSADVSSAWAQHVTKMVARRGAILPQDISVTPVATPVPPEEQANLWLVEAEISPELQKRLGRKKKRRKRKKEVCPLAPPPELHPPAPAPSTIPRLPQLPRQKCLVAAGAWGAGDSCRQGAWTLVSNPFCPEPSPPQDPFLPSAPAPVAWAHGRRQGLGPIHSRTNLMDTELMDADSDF
T2 sequence (Q99835 28-787 D473H): as the sequence (Q99835 28-787) above, with D446H counted along it

As for `COc1cnc(Nc2ccc(C(=O)Nc3cc(CN4CCOCC4)ccc3C)cc2)nc1-c1ccc(OC(F)(F)F)cc1` [Compound 38, 4-[5-Methoxy-4-(4-trifluoromethoxy-phenyl)-pyrimidin-2-ylamino]-N-(2-methyl-5-morpholin-4-ylmethyl-phenyl)-benzamide], the IC50 (in assay [1]; on Smo wild type; at Smo D473H mutant) was less than 100 nM each time.
As to `CSc1cnc(Nc2ccc(C(=O)Nc3ccccc3C)cc2)nc1-c1cccnc1F` [Compound 11, 4-[4-(2-Fluoro-pyridin-3-yl)-5-methylsulfanyl-pyrimidin-2-ylamino]-N-o-tolyl-benzamide], the IC50 (in assay [1]; at Smo wild type; on Smo D473H mutant) was 100 to 1000 nM each time.
With `CCOc1ccc(-c2nc(Nc3ccc(C(=O)Nc4ccc(Cl)c(C(F)(F)F)c4)cc3)ncc2SC)cn1` [Compound 7, N-(4-Chloro-3-trifluoromethyl-phenyl)-4-[4-(6-ethoxy-pyridin-3-yl)-5-methylsulfanyl-pyrimidin-2-ylamino]-benzamide], the IC50 (in assay [1]; at Smo wild type; on Smo D473H mutant) was 100 to 1000 nM in each case.
As to `Cc1ccc(CN2CCOCC2)cc1NC(=O)c1ccc(Nc2ncc(N)c(-c3ccc(OC(F)(F)F)cc3)n2)cc1` [Compound 88, 4-((5-amino-4-(4-(trifluoromethoxy)phenyl)pyrimidin-2-yl)amino)-N-(2-methyl-5-(morpholinomethyl)phenyl)benzamide], the IC50 (in assay [1]; on Smo wild type; on Smo D473H mutant) was less than 100 nM in each case.
As to `CSc1cnc(Nc2ccc(C(=O)Nc3cc(CN(C)C)ccc3C)cc2)nc1-c1ccc(C(F)(F)F)cc1` [Compound 32, N-(5-Dimethylaminomethyl-2-methyl-phenyl)-4-[5-methylsulfanyl-4-(4-trifluoromethyl-phenyl)-pyrimidin-2-ylamino]-benzamide], the IC50 (in assay [1]; on Smo wild type; at Smo D473H mutant) was 100 to 1000 nM throughout.
With `CSc1cnc(Nc2ccc(C(=O)Nc3ccccc3)cc2)nc1-c1cccnc1F` [Compound 5, 4-[4-(2-Fluoro-pyridin-3-yl)-5-methylsulfanyl-pyrimidin-2-ylamino]-N-phenyl-benzamide], the IC50 (in assay [1]; at Smo wild type; at Smo D473H mutant) was 100 to 1000 nM in each case.
For the compound `CCN(CC)Cc1ccc(C)c(NC(=O)c2ccc(Nc3ncc(SC)c(-c4ccc(F)cc4)n3)cc2)c1` [Compound 47, N-(5-Diethylaminomethyl-2-methyl-phenyl)-4-[4-(4-fluoro-phenyl)-5-methylsulfanyl-pyrimidin-2-ylamino]-benzamide], the IC50 in assay [1] was less than 100 nM; at Smo wild type it was less than 100 nM; at Smo D473H mutant it was 100 to 1000 nM.
As for `COc1cnc(Nc2ccc(C(=O)Nc3cc(CN4CCN(C)CC4)ccc3C)cc2)nc1-c1ccc(OC(F)(F)F)cc1` [Compound 52, 4-[5-Methoxy-4-(4-trifluoromethoxy-phenyl)-pyrimidin-2-ylamino]-N-[2-methyl-5-(4-methyl-piperazin-1-ylmethyl)-phenyl]-benzamide], the IC50 in assay [1] was less than 100 nM; at Smo wild type, less than 100 nM; on Smo D473H mutant it was greater than 1000 nM.
With `CSc1cnc(Nc2ccc(C(=O)Nc3cc(CN4CCCCC4)ccc3C)cc2)nc1-c1ccc(C(F)(F)F)cc1` [Compound 28, N-(2-Methyl-5-piperidin-1-ylmethyl-phenyl)-4-[5-methylsulfanyl-4-(4-trifluoromethyl-phenyl)-pyrimidin-2-ylamino]-benzamide], the IC50 in assay [1] was less than 100 nM; on Smo wild type, 100 to 1000 nM; at Smo D473H mutant, 100 to 1000 nM.
For the compound `CNc1cnc(Nc2ccc(C(=O)Nc3cc(CN4CCOCC4)ccc3C)cc2)nc1-c1ccc(OC(F)(F)F)cc1` [Compound 91, N-(2-methyl-5-(morpholinomethyl)phenyl)-4-((5-(methylamino)-4-(4-(trifluoromethoxy)phenyl)pyrimidin-2-yl)amino)benzamide], the IC50 (in assay [1]; on Smo wild type; on Smo D473H mutant) was less than 100 nM throughout.
For the compound `CSc1cnc(Nc2ccc(C(=O)Nc3cc(CN(C)C)ccc3C)cc2)nc1-c1ccc(OC(F)(F)F)cc1` [Compound 54, N-(5-Dimethylaminomethyl-2-methyl-phenyl)-4-[5-methylsulfanyl-4-(4-trifluoromethoxy-phenyl)-pyrimidin-2-ylamino]-benzamide], the IC50 in assay [1] was less than 100 nM; on Smo wild type, 100 to 1000 nM; at Smo D473H mutant, 100 to 1000 nM.
Consider `CSc1cnc(Nc2ccc(C(=O)Nc3cc(CN4CCOCC4)ccc3C)cc2)cc1-c1ccc(F)cc1` [Compound 84, 4-((4-(4-fluorophenyl)-5-(methylthio)pyridin-2-yl)amino)-N-(2-methyl-5-(morpholinomethyl)phenyl)benzamide], for which the results for the IC50 (in assay [1]; on Smo wild type; on Smo D473H mutant) were less than 100 nM, less than 100 nM and 100 to 1000 nM, respectively.
Take `CSc1cnc(Nc2ccc(C(=O)Nc3cc(CN4CCN(C)CC4)ccc3C)cc2)nc1-c1ccc(F)cc1` [Compound 36, 4-[4-(4-Fluoro-phenyl)-5-methylsulfanyl-pyrimidin-2-ylamino]-N-[2-methyl-5-(4-methyl-piperazin-1-ylmethyl)-phenyl]-benzamide]: the IC50 in assay [1] was less than 100 nM; at Smo wild type, less than 100 nM; at Smo D473H mutant, 100 to 1000 nM.
With `COc1cccc(C)c1NC(=O)c1ccc(Nc2ncc(SC)c(-c3ccc(OC(F)(F)F)cc3)n2)cc1` [Compound 25, N-(2-Methoxy-6-methyl-phenyl)-4-[5-methylsulfanyl-4-(4-trifluoromethoxy-phenyl)-pyrimidin-2-ylamino]-benzamide], the IC50 (in assay [1]; on Smo wild type; on Smo D473H mutant) was 100 to 1000 nM each time.
For `CSc1cnc(Nc2ccc(C(=O)Nc3cc(CN4CCOCC4)ccc3C)cc2)nc1-c1ccc(C#N)cc1` [Compound 33, 4-[4-(4-Cyano-phenyl)-5-methylsulfanyl-pyrimidin-2-ylamino]-N-(2-methyl-5-morpholin-4-ylmethyl-phenyl)-benzamide], the IC50 was less than 100 nM in assay [1], less than 100 nM at Smo wild type and 100 to 1000 nM at Smo D473H mutant.
Regarding `CSc1cnc(Nc2ccc(C(=O)Nc3c(C)cccc3C)cc2F)nc1-c1cccnc1F` [Compound 12, N-(2,6-Dimethyl-phenyl)-3-fluoro-4-[4-(2-fluoro-pyridin-3-yl)-5-methylsulfanyl-pyrimidin-2-ylamino]-benzamide], the IC50 (in assay [1]; on Smo wild type; at Smo D473H mutant) was 100 to 1000 nM each time.
On to `COc1ccc(CN2CCOCC2)cc1NC(=O)c1ccc(Nc2ncc(SC)c(-c3ccc(F)cc3)n2)cc1` [Compound 59, 4-[4-(4-Fluoro-phenyl)-5-methylsulfanyl-pyrimidin-2-ylamino]-N-(2-methoxy-5-morpholin-4-ylmethyl-phenyl)-benzamide], for which the IC50 (in assay [1]; at Smo wild type; on Smo D473H mutant) was 100 to 1000 nM in each case.
For `COc1cnc(Nc2ccc(C(=O)Nc3cc(CN4CCOCC4)ccc3C)cc2)nc1-c1ccc(C#N)cc1` [Compound 49, 4-[4-(4-Cyano-phenyl)-5-methoxy-pyrimidin-2-ylamino]-N-(2-methyl-5-morpholin-4-ylmethyl-phenyl)-benzamide], the values for the IC50 (in assay [1]; at Smo wild type; at Smo D473H mutant) were 100 to 1000 nM, 100 to 1000 nM and greater than 1000 nM, respectively.
As for `CSc1cnc(Nc2ccc(C(=O)Nc3cccc(CN4CCOCC4)c3)cc2)nc1-c1ccc(OC(F)(F)F)cc1` [Compound 65, 4-[5-Methylsulfanyl-4-(4-trifluoromethoxy-phenyl)-pyrimidin-2-ylamino]-N-(3-morpholin-4-ylmethyl-phenyl)-benzamide], the IC50 was less than 100 nM in assay [1], less than 100 nM on Smo wild type and 100 to 1000 nM on Smo D473H mutant.
